pIC50: −log10 of the molar value. ≈ marks a conversion by molar mass, not a printed value.
Legend:
[1] = tested on: Escherichia coli; experiment: Antibacterial activity against Escherichia coli JM109 assessed as reduction in bacterial cell growth incubated for overnight by two-fold serial dilution method; assay type: functional
[2] = tested on: Bacillus subtilis; experiment: Antibacterial activity against Bacillus subtilis ATCC 6633 assessed as reduction in bacterial cell growth incubated for overnight by two-fold serial dilution method; assay type: functional
[3] = tested on: Aspergillus flavus; experiment: Antifungal activity against Aspergillus flavus ATCC 16870 assessed as reduction in fungal cell growth incubated for 48 hrs by two-fold serial dilution method; assay type: functional; details: ATCC 16870, 48 h
[4] = tested on: Candida albicans; experiment: Antifungal activity against Candida albicans ATCC 76615 assessed as reduction in fungal cell growth incubated for 48 hrs by two-fold serial dilution method; assay type: functional; details: ATCC 76615, 48 h
[5] = tested on: Cryptococcus neoformans; experiment: Antifungal activity against Cryptococcus neoformans ATCC 32719 assessed as reduction in fungal cell growth incubated for 48 hrs by two-fold serial dilution method; assay type: functional; details: ATCC 32719, 48 h
[6] = tested on: Staphylococcus aureus; experiment: Antibacterial activity against Staphylococcus aureus ATCC 25923 assessed as reduction in bacterial cell growth incubated for overnight by two-fold serial dilution method; assay type: functional
[7] = tested on: Pseudomonas aeruginosa; experiment: Antibacterial activity against Pseudomonas aeruginosa ATCC 9027 assessed as reduction in bacterial cell growth incubated for overnight by two-fold serial dilution method; assay type: functional
[8] = Inhibition of Saccharomyces cerevisiae CGMCC 2.145 chitin synthase using GlcNAc and UDP-GlcNAc as substrate incubated for 60 mins by microplate reader analysis
[9] = tested on: Staphylococcus aureus; experiment: Antibacterial activity against methicillin resistant Staphylococcus aureus N 315 assessed as reduction in bacterial cell growth incubated for overnight by two-fold serial dilution method; assay type: functional
[10] = tested on: Proteus vulgaris; experiment: Antibacterial activity against Bacillus proteus ATCC 8427 assessed as reduction in bacterial cell growth incubated for overnight by two-fold serial dilution method; assay type: functional
[11] = tested on: Saccharomyces cerevisiae; experiment: Inhibition of Saccharomyces cerevisiae CGMCC 2.145 chitin synthase using GlcNAc and UDP-GlcNAc as substrate at 300 ug/ml incubated for 60 mins by microplate reader analysis relative to control

Cl.O=C1CCc2c(cccc2N2CCN(C[C@@H](O)CNc3ccc(Br)cc3)CC2)N1
MIC [1]: 256 µg/mL
MIC [2]: 64 µg/mL
MIC [3]: 128 µg/mL
MIC [4]: 64 µg/mL
MIC [5]: 128 µg/mL
MIC [6]: 64 µg/mL
MIC [7]: 128 µg/mL
pIC50 [8]: 3.46
MIC [9]: 128 µg/mL
MIC [10]: 128 µg/mL

Cl.O=C1CCc2c(cccc2N2CCN(C[C@@H](O)CNc3ccccc3)CC2)N1
MIC [1]: 128 µg/mL
MIC [2]: 128 µg/mL
MIC [3]: 128 µg/mL
MIC [4]: 128 µg/mL
MIC [5]: 128 µg/mL
MIC [6]: 128 µg/mL
MIC [7]: 128 µg/mL
pIC50 [8]: 3.72
MIC [9]: 128 µg/mL
MIC [10]: 256 µg/mL

Cl.O=C1CCc2c(cccc2N2CCN(C[C@H](O)CNc3ccccc3)CC2)N1
MIC [1]: 256 µg/mL
MIC [2]: 256 µg/mL
MIC [3]: 128 µg/mL
MIC [4]: 64 µg/mL
MIC [5]: 256 µg/mL
MIC [6]: 256 µg/mL
MIC [7]: 256 µg/mL
pIC50 [8]: 3.77
MIC [9]: 128 µg/mL
MIC [10]: 128 µg/mL

Cl.O=C1CCc2c(cccc2N2CCN(C[C@H](O)CNc3ccc(Cl)cc3)CC2)N1
MIC [1]: 128 µg/mL
MIC [2]: 128 µg/mL
MIC [3]: 128 µg/mL
MIC [4]: 32 µg/mL
MIC [5]: 256 µg/mL
MIC [6]: 128 µg/mL
MIC [7]: 256 µg/mL
pIC50 [8]: 3.42
MIC [9]: 128 µg/mL
MIC [10]: 128 µg/mL

CCCCNC[C@@H](O)CN1CCN(c2cccc3c2CCC(=O)N3)CC1.Cl
MIC [1]: 256 µg/mL
MIC [2]: 256 µg/mL
MIC [3]: 256 µg/mL
MIC [4]: 128 µg/mL
MIC [5]: 128 µg/mL
MIC [6]: 256 µg/mL
MIC [7]: 256 µg/mL
pIC50 [8]: 3.51
MIC [9]: 256 µg/mL
MIC [10]: 256 µg/mL

CCCCNC[C@H](O)CN1CCN(c2cccc3c2CCC(=O)N3)CC1.Cl
MIC [1]: 128 µg/mL
MIC [2]: 512 µg/mL
MIC [3]: 512 µg/mL
MIC [4]: 64 µg/mL
MIC [5]: 256 µg/mL
MIC [6]: 256 µg/mL
MIC [7]: 128 µg/mL
pIC50 [8]: 3.47
MIC [9]: 256 µg/mL
MIC [10]: 256 µg/mL

COc1ccc(NC[C@@H](O)CN2CCN(c3cccc4c3CCC(=O)N4)CC2)cc1.Cl
MIC [1]: 64 µg/mL
MIC [2]: 128 µg/mL
MIC [3]: 256 µg/mL
MIC [4]: 64 µg/mL
MIC [5]: 128 µg/mL
MIC [6]: 128 µg/mL
MIC [7]: 256 µg/mL
pIC50 [8]: 3.92
MIC [9]: 128 µg/mL
MIC [10]: 128 µg/mL

Cl.O=C1CCc2c(cccc2N2CCN(C[C@@H](O)CNc3ccc(Cl)cc3)CC2)N1
MIC [1]: 128 µg/mL
MIC [2]: 64 µg/mL
MIC [3]: 128 µg/mL
MIC [4]: 32 µg/mL
MIC [5]: 128 µg/mL
MIC [6]: 64 µg/mL
MIC [7]: 256 µg/mL
pIC50 [8]: 3.44
MIC [9]: 64 µg/mL
MIC [10]: 128 µg/mL

Cl.O=C1CCc2c(cccc2N2CCN(C[C@H](O)CNc3ccc(Br)cc3)CC2)N1
MIC [1]: 128 µg/mL
MIC [2]: 128 µg/mL
MIC [3]: 64 µg/mL
MIC [4]: 128 µg/mL
MIC [5]: 128 µg/mL
MIC [6]: 64 µg/mL
MIC [7]: 128 µg/mL
pIC50 [8]: 3.48
MIC [9]: 64 µg/mL
MIC [10]: 256 µg/mL

COc1ccc(NC[C@H](O)CN2CCN(c3cccc4c3CCC(=O)N4)CC2)cc1.Cl
MIC [1]: 32 µg/mL
MIC [2]: 256 µg/mL
MIC [3]: 128 µg/mL
MIC [4]: 32 µg/mL
MIC [5]: 256 µg/mL
MIC [6]: 64 µg/mL
MIC [7]: 128 µg/mL
pIC50 [8]: 3.92
MIC [9]: 128 µg/mL
MIC [10]: 256 µg/mL

Cl.O=C1CCc2c(cccc2N2CCN(CC(O)CNc3ccccc3)CC2)N1 (racemic)
MIC [1]: 256 µg/mL
MIC [2]: 128 µg/mL
MIC [3]: 128 µg/mL
MIC [4]: 64 µg/mL
MIC [5]: 128 µg/mL
MIC [6]: 128 µg/mL
MIC [7]: 256 µg/mL
pIC50 [8]: 3.82
MIC [9]: 128 µg/mL
MIC [10]: 128 µg/mL
inhibition [11]: 62.7%

Cl.O=C1CCc2c(cccc2N2CCN(CC(O)CNc3ccccc3Cl)CC2)N1 (racemic)
MIC [1]: 128 µg/mL
MIC [2]: 128 µg/mL
MIC [3]: 128 µg/mL
MIC [4]: 32 µg/mL
MIC [5]: 512 µg/mL
MIC [6]: 64 µg/mL
MIC [7]: 256 µg/mL
pIC50 [8]: 3.33
MIC [9]: 128 µg/mL
MIC [10]: 64 µg/mL
inhibition [11]: 52.4%

Cl.O=C1CCc2c(cccc2N2CCN(CC(O)CNc3ccc(Cl)cc3)CC2)N1 (racemic)
MIC [1]: 128 µg/mL
MIC [2]: 64 µg/mL
MIC [3]: 256 µg/mL
MIC [4]: 32 µg/mL
MIC [5]: 256 µg/mL
MIC [6]: 64 µg/mL
MIC [7]: 128 µg/mL
pIC50 [8]: 3.44
MIC [9]: 64 µg/mL
MIC [10]: 128 µg/mL
inhibition [11]: 59.3%

Cl.O=C1CCc2c(cccc2N2CCN(CC(O)CNc3ccc(Br)cc3)CC2)N1 (racemic)
MIC [1]: 256 µg/mL
MIC [2]: 64 µg/mL
MIC [3]: 64 µg/mL
MIC [4]: 64 µg/mL
MIC [5]: 256 µg/mL
MIC [6]: 64 µg/mL
MIC [7]: 256 µg/mL
pIC50 [8]: 3.42
MIC [9]: 128 µg/mL
MIC [10]: 128 µg/mL
inhibition [11]: 55.4%

Cl.O=C1CCc2c(cccc2N2CCN(CC(O)CN3CCCCCC3)CC2)N1 (racemic)
MIC [1]: 256 µg/mL
MIC [2]: 256 µg/mL
MIC [3]: 256 µg/mL
MIC [4]: 128 µg/mL
MIC [5]: 256 µg/mL
MIC [6]: 256 µg/mL
MIC [7]: 256 µg/mL
MIC [9]: 512 µg/mL
MIC [10]: 256 µg/mL
inhibition [11]: 45.4%

Cl.O=C1CCc2c(cccc2N2CCN(CC(O)CN(CCO)CCO)CC2)N1 (racemic)
MIC [1]: 256 µg/mL
MIC [2]: 256 µg/mL
MIC [3]: 256 µg/mL
MIC [4]: 128 µg/mL
MIC [5]: 256 µg/mL
MIC [6]: 256 µg/mL
MIC [7]: 256 µg/mL
MIC [9]: 512 µg/mL
MIC [10]: 256 µg/mL
inhibition [11]: 34.5%

COc1ccc(NCC(O)CN2CCN(c3cccc4c3CCC(=O)N4)CC2)cc1.Cl (racemic)
MIC [1]: 64 µg/mL
MIC [2]: 128 µg/mL
MIC [3]: 128 µg/mL
MIC [4]: 32 µg/mL
MIC [5]: 128 µg/mL
MIC [6]: 64 µg/mL
MIC [7]: 128 µg/mL
pIC50 [8]: 4.00
MIC [9]: 128 µg/mL
MIC [10]: 256 µg/mL
inhibition [11]: 84.9%

Cl.O=C1CCc2c(cccc2N2CCN(CC(O)CN3CCCC3)CC2)N1 (racemic)
MIC [1]: 128 µg/mL
MIC [2]: 256 µg/mL
MIC [3]: 256 µg/mL
MIC [4]: 128 µg/mL
MIC [5]: 256 µg/mL
MIC [6]: 256 µg/mL
MIC [7]: 512 µg/mL
MIC [9]: 256 µg/mL
MIC [10]: 256 µg/mL
inhibition [11]: 49.9%

NC(=O)OC[C@H](O)[C@@H](O)[C@H](N)C(=O)N[C@H](C(=O)O)[C@H]1O[C@@H](n2cc(CO)c(=O)[nH]c2=O)[C@H](O)[C@@H]1O [POLYOXIN B]
MIC [3]: 32 µg/mL (≈ 63.1 µM)
MIC [4]: 32 µg/mL (≈ 63.1 µM)
MIC [5]: 8 µg/mL (≈ 15.8 µM)
pIC50 [8]: 3.74
inhibition [11]: 85.1%

From ChEMBL document CHEMBL4359852, “Design, synthesis and biological evaluation of novel 5-(piperazin-1-yl)quinolin-2(1H)-one derivatives as potential chitin synthase inhibitors and antifungal agents” (Eur J Med Chem, 2019)
